From publication PMC6804443 (Acta Pharmaceutica Sinica. B, 2019)
Starred links: 1 amine or outer side, 2 acyl side, 3 side chain; linkers in the order of their positions; H or OH if unused. Positions of bridges follow the written chain, without caps; N, C: chain ends. Non-standard residues stand in square brackets, D forms with d. Residues, ends and D or L forms follow the SMILES beside them. *: point of attachment. hTyr(3S-OH,4S-OH,3'-OSO3H) = N[C@H](C(=O)O)[C@H](O)[C@@H](O)c1ccc(O)c(OS(=O)(=O)O)c1; Orn(4R-OH,5R-OH) = O=C([C@H](C[C@@H](O)[C@@H](O)N[*:3])N[*:1])[*:2]; Pro(3S-OH,4S-Me) = C[C@H]1CN[C@H](C(=O)O)[C@H]1O; X1 = CCCCCOc1ccc(-c2cc(-c3ccc(C(=O)*)cc3)no2)cc1; Gln(3R-OH) = NC(=O)C[C@@H](O)[C@H](N)C(=O)O; Hyp = O=C(O)[C@@H]1C[C@@H](O)CN1

Tests used:
OATP1B3 [1] = biological target: T1, OATP1B3 (Homo sapiens, UniProt Q9NPD5); conditions: IC50, OATP1B3 [X10], mean ± SD (n = 3)
T1 sequence (Q9NPD5 1-702): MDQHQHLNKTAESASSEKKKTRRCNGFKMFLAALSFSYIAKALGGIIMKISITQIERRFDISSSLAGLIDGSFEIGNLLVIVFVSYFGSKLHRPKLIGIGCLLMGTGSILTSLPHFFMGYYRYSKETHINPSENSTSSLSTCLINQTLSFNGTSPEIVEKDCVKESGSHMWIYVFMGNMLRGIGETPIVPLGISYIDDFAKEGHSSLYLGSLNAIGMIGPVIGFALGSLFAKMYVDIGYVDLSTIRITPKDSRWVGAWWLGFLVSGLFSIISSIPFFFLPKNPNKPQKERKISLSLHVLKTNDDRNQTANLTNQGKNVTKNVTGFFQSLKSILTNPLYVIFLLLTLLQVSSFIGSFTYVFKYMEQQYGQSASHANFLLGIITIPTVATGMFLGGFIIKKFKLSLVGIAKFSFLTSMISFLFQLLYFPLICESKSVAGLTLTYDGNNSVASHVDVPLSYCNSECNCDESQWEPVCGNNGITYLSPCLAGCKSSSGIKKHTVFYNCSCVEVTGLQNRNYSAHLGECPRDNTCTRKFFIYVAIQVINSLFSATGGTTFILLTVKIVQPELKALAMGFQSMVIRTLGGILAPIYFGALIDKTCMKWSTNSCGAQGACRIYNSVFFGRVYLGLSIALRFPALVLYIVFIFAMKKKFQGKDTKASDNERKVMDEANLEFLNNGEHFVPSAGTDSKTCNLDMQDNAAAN

OATP1B3 [2] = biological target: T1, OATP1B3; assay: in vitro
ALDH = format: in vitro ADME; conditions: human, pooled human liver cytosol
OATP1B3 [3] = biological target: T1, OATP1B3; conditions: antibiotic as perpetrator, salvianolic acid B (X10) as victim; (Cmax × fu-p × R)/IC50
UGT2B15 = biological target: T2, UGT2B15 (Homo sapiens, UniProt P54855); format: in vitro ADME; conditions: for Inhibition DDI index, UGT2B15: antibiotic as perpetrator, senkyunolide I (X5) as victim, (Cmax × fu-p × R)/IC50
T2 sequence (P54855 24-530): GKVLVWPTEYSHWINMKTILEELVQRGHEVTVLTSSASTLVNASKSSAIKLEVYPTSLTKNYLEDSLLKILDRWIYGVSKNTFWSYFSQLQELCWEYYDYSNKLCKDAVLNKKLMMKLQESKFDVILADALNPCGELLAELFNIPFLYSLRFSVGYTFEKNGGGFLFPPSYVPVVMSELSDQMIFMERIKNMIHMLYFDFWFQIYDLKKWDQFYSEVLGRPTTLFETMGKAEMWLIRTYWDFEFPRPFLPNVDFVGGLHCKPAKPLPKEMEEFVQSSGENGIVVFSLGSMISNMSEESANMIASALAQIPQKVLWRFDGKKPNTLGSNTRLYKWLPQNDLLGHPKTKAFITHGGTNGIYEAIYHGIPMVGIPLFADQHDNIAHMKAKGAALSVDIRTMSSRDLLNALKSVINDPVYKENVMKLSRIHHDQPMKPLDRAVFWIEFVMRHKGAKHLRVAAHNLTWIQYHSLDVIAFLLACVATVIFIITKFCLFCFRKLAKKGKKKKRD

OAT1 = biological target: T3, OAT1 (Homo sapiens, UniProt Q4U2R8); assay: OAT1 inhibition by antibiotics, transfected HEK293 cells, tanshinol as substrate
T3 sequence (Q4U2R8 1-563): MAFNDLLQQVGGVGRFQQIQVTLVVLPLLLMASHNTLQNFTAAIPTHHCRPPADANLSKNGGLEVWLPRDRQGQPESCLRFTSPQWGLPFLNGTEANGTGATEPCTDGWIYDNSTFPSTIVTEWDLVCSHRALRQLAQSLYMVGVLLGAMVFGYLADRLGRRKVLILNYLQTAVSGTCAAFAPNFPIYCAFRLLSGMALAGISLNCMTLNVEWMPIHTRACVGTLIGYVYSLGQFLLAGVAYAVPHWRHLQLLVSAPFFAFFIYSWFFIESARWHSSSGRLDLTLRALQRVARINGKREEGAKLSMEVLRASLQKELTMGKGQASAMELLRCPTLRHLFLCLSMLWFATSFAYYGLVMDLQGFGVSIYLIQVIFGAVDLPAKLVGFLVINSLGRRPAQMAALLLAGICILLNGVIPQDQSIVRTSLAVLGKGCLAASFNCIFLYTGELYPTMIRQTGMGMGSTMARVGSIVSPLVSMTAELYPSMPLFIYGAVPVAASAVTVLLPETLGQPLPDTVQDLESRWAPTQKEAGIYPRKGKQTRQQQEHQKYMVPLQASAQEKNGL

OAT2 = biological target: T4, OAT2 (Homo sapiens, UniProt Q9Y694); assay: OAT2 inhibition by antibiotics, transfected HEK293 cells, tanshinol as substrate; format: in vitro ADME; conditions: for Inhibition DDI index, OAT2: antibiotic as perpetrator, tanshinol (X8) as victim, (Cmax × fu-p × R)/IC50
T4 sequence (Q9Y694 1-546 isoform Q9Y694-2): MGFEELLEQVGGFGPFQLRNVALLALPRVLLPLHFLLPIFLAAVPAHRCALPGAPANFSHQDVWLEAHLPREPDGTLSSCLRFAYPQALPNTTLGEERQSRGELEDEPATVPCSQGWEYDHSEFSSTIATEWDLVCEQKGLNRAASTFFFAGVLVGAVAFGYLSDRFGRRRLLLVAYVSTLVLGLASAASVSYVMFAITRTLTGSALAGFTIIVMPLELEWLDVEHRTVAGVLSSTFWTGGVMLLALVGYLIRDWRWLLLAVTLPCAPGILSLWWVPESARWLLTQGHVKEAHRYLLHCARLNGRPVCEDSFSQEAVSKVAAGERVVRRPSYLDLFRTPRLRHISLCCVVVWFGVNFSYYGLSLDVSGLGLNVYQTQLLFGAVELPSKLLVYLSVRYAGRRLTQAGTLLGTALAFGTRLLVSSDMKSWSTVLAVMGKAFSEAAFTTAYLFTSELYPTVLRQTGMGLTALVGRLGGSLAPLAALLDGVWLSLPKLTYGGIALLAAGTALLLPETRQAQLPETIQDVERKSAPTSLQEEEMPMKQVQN

[4] = HEK293, read-out: Inhibition of OAT2

COc1c(N2C[C@@H]3CCCN[C@@H]3C2)c(F)cc2c(=O)c(C(=O)O)cn(C3CC3)c12 [A33, moxifloxacin]
IC50 (OATP1B3 [1]): 17 ± 2 µM
inhibition at 100 μmol/L (OATP1B3 [2]): 64 to 88%

CO[C@H]1/C=C/O[C@@]2(C)Oc3c(C)c(O)c4c(O)c(c(/C=N/N5CCN(C)CC5)c(O)c4c3C2=O)NC(=O)/C(C)=C\C=C\[C@H](C)[C@H](O)[C@@H](C)[C@@H](O)[C@@H](C)[C@H](OC(C)=O)[C@@H]1C [A39, rifampin]
IC50 (OATP1B3 [1]): 2 µM
inhibition at 100 μmol/L (OATP1B3 [2]): > 90%

C[C@@H](O)[C@H]1C(=O)N2C(C(=O)O)=C(SCCN=CN)C[C@H]12 [A1, imipenem]
IC50 (ALDH): 120 ± 30 µM
inhibition at 1000 μmol/L (ALDH): 56 to 88%

CC1(C)S[C@@H]2[C@H](NC(=O)Cc3ccccc3)C(=O)N2[C@H]1C(=O)O [A15, penicillin G]
IC50 (ALDH): 308 ± 68 µM
IC50 (OATP1B3 [1]): 56 ± 21 µM
inhibition at 5000 μmol/L (OATP1B3 [2]): > 90%

C[C@@H](O)[C@H]1C(=O)N2C(C(=O)O)=C(S[C@@H]3CN[C@H](C(=O)N(C)C)C3)[C@H](C)[C@H]12 [A2, meropenem]
IC50 (ALDH): 164 ± 39 µM
inhibition at 1000 μmol/L (ALDH): 56 to 88%

CO/N=C(\C(=O)N[C@@H]1C(=O)N2C(C(=O)O)=C(CSc3nc(=O)c(=O)[nH]n3C)CS[C@H]12)c1csc(N)n1 [A6, ceftriaxone]
Inhibition DDI index, OATP1B3 (OATP1B3 [3]): 0.68
IC50 (OATP1B3 [1]): 201 ± 48 µM
inhibition at 1000 μmol/L (OATP1B3 [2]): 64 to 88%

CCN1CCN(C(=O)N[C@@H](C(=O)N[C@@H]2C(=O)N3C(C(=O)O)=C(CSc4nnnn4C)CS[C@H]23)c2ccc(O)cc2)C(=O)C1=O [A8, cefoperazone]
Inhibition DDI index, OATP1B3 (OATP1B3 [3]): 1.72–4.43
IC50 (OATP1B3 [1]): 27 ± 9 µM
IC50 (UGT2B15): 971 ± 130 µM
Inhibition DDI index, UGT2B15 (UGT2B15): 0.12
inhibition at 1000 μmol/L (UGT2B15; human, cDNA-expressed UGT2B15): 60 to 88%
inhibition at 1000 μmol/L (OATP1B3 [2]): 64 to 88%

CCCCCOc1ccc(-c2cc(-c3ccc(C(=O)N[C@H]4C[C@@H](O)[C@@H](O)NC(=O)[C@@H]5[C@@H](O)[C@@H](C)CN5C(=O)[C@H]([C@H](O)CC(N)=O)NC(=O)[C@H]([C@H](O)[C@@H](O)c5ccc(O)c(OS(=O)(=O)O)c5)NC(=O)[C@@H]5C[C@@H](O)CN5C(=O)[C@H]([C@@H](C)O)NC4=O)cc3)no2)cc1 [A40, micafungin] (X1-[Orn(4R-OH,5R-OH)]T[Hyp][hTyr(3S-OH,4S-OH,3'-OSO3H)][Gln(3R-OH)][Pro(3S-OH,4S-Me)]; lactam 1-C)
IC50 (OAT1): 43 ± 4 µM
inhibition at 100 μmol/L (OAT1; human): ≥ 90%
IC50 (OAT2): 26 ± 2 µM
inhibition at 100 µM (OAT2; [4]): > 90%
IC50 (OATP1B3 [1]): 3 ± 1 µM
IC50 (UGT2B15): 3 µM
inhibition at 100 μmol/L (UGT2B15; human, cDNA-expressed UGT2B15): ≥ 90%
inhibition at 100 μmol/L (OATP1B3 [2]): > 90%

CC[C@H]1OC(=O)[C@H](C)[C@@H](O[C@H]2C[C@@](C)(OC)[C@@H](O)[C@H](C)O2)[C@H](C)[C@@H](O[C@@H]2O[C@H](C)C[C@H](N(C)C)[C@H]2O)[C@](C)(O)C[C@@H](C)C(=O)[C@H](C)[C@@H](O)[C@]1(C)O [A34, erythromycin]
Inhibition DDI index, OATP1B3 (OATP1B3 [3]): 0.35–1.04
IC50 (OATP1B3 [1]): 3 ± 1 µM
inhibition at 100 μmol/L (OATP1B3 [2]): > 90%

C[C@H]1COc2c(N3CCN(C)CC3)c(F)cc3c(=O)c(C(=O)O)cn1c23 [A31, levofloxacin]
IC50 (OAT2): 50 ± 9 µM
inhibition at 100 µM (OAT2; [4]): 60 to 84%
Inhibition DDI index, OAT2 (OAT2): 0.36

C[C@@H]1[C@H](O)[C@@H](C)/C=C/C=C/C=C/C=C/C=C/C=C/C=C/[C@H](O[C@@H]2O[C@H](C)[C@@H](O)[C@H](N)[C@@H]2O)C[C@@H]2O[C@](O)(C[C@@H](O)C[C@@H](O)[C@H](O)CC[C@@H](O)C[C@@H](O)CC(=O)O[C@H]1C)C[C@H](O)[C@H]2C(=O)O [A42, amphotericin B]
IC50 (ALDH): 87 ± 9 µM
inhibition at 100 μmol/L (ALDH): 56 to 88%
IC50 (OATP1B3 [1]): 1 µM
inhibition at 100 μmol/L (OATP1B3 [2]): 64 to 88%

CCC(C)n1ncn(-c2ccc(N3CCN(c4ccc(OCC5COC(Cn6cncn6)(c6ccc(Cl)cc6Cl)O5)cc4)CC3)cc2)c1=O (centres unmarked) [A44, itraconazole]
IC50 (OATP1B3 [1]): 4 ± 1 µM
inhibition at 100 μmol/L (OATP1B3 [2]): 64 to 88%

CC(C)(O/N=C(\C(=O)N[C@@H]1C(=O)N2C(C(=O)[O-])=C(C[n+]3ccccc3)CS[C@H]12)c1csc(N)n1)C(=O)O [A7, ceftazidime]
IC50 (ALDH): 1030 ± 155 µM
inhibition at 5000 μmol/L (ALDH): 56 to 88%

CCN1CCN(C(=O)N[C@@H](C(=O)N[C@@H]2C(=O)N3[C@@H]2SC(C)(C)[C@@H]3C(=O)O)c2ccccc2)C(=O)C1=O [A13, piperacillin]
IC50 (OAT1): 591 ± 154 µM
Inhibition DDI index, OAT1 (OAT1; antibiotic as perpetrator, tanshinol (X8) as victim, (Cmax × fu-p × R)/IC50): 0.75
inhibition at 5000 μmol/L (OAT1; human): 63 to 88%
IC50 (OAT2): 1210 ± 434 µM
inhibition at 5000 µM (OAT2; [4]): 60 to 84%
Inhibition DDI index, OAT2 (OAT2): 0.37
IC50 (UGT2B15): 797 ± 142 µM
Inhibition DDI index, UGT2B15 (UGT2B15): 0.56
inhibition at 5000 μmol/L (UGT2B15; human, cDNA-expressed UGT2B15): 60 to 88%

CO/N=C(\C(=O)N[C@@H]1C(=O)N2C(C(=O)O)=C(COC(C)=O)CS[C@H]12)c1csc(N)n1 [A9, cefotaxime]
Inhibition DDI index, OATP1B3 (OATP1B3 [3]): 1.81–2.14
IC50 (OATP1B3 [1]): 68 ± 20 µM
inhibition at 1000 μmol/L (OATP1B3 [2]): 64 to 88%

CC1(C)S[C@@H]2[C@H](NC(=O)[C@H](N)c3ccccc3)C(=O)N2[C@H]1C(=O)O [A16, ampicillin]
IC50 (ALDH): 2080 ± 283 µM
inhibition at 5000 μmol/L (ALDH): 56 to 88%
Inhibition DDI index, OATP1B3 (OATP1B3 [3]): 8.55
IC50 (OATP1B3 [1]): 42 ± 18 µM
inhibition at 5000 μmol/L (OATP1B3 [2]): > 90%
